# Patent publication US6737383B1, “Herbicidal oxadiazolidines” (priority 1999, dated 2004)
# How the values were obtained:
# [1] = system: surinam grass; test: Test B pre/postemergence surinam grass; assay type: in vivo, Brachiaria decumbens
# How it was run: (§1)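 Herbicidal effect was estimated by eye on a ten-point control scale after plants spent twelve to sixteen days in a greenhouse following soil or foliar treatment. Foliar sprays targeted plants at one to four leaves; all doses were formulated in a non-phytotoxic solvent with surfactant.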
# [2] = system: blackgrass; test: Test B pre/postemergence blackgrass; assay type: in vivo, Alopecurus myosuroides
# How it was run: as §1
# [3] = system: pigweed; test: Test B pre/postemergence pigweed; assay type: in vivo, Amaranthus retroflexus
# How it was run: as §1
# [4] = system: rice; test: Test B flood test rice; assay type: in vivo, Oryza sativa
# How it was run: (§2)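 Flood test on plants grown to the 2-leaf stage; treated plants kept in greenhouse twelve to sixteen days, then visually rated against controls on a 0 (no effect) to 10 (complete control) scale.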
# [5] = system: crabgrass; test: Test B pre/postemergence crabgrass; assay type: in vivo, Digitaria sanguinalis
# How it was run: as §1
# [6] = system: wheat; test: Test B pre/postemergence wheat; assay type: in vivo, Triticum aestivum
# How it was run: as §1
# [7] = system: rape; test: Test B pre/postemergence rape; assay type: in vivo, Brassica napus
# How it was run: as §1
# [8] = system: corn; test: Test B pre/postemergence corn; assay type: in vivo, Zea mays
# How it was run: as §1
# [9] = system: soybean; test: Test B pre/postemergence soybean; assay type: in vivo, Glycine max
# How it was run: as §1
# [10] = system: sugar beet; test: Test B pre/postemergence sugar beet; assay type: in vivo, Beta vulgaris
# How it was run: as §1
# [11] = system: purple nutsedge; test: Test B pre/postemergence purple nutsedge; assay type: in vivo, Cyperus rotundus
# How it was run: as §1
# [12] = system: duck salad; test: Test B flood test duck salad; assay type: in vivo, Heteranthera limosa
# How it was run: as §2
# [13] = system: bamyardgrass; test: Test B flood test barnyardgrass; assay type: in vivo, Echinochloa crus-galli
# How it was run: as §2
# [14] = system: giant foxtail; test: Test B pre/postemergence giant foxtail; assay type: in vivo, Setaria faberii
# How it was run: as §1
# [15] = system: smallflower flatsedge; test: Test B flood test smallflower flatsedge; assay type: in vivo, Cyperus difformis
# How it was run: as §2
# [16] = system: cocklebur; test: Test B pre/postemergence cocklebur; assay type: in vivo, Xanthium strumarium
# How it was run: as §1
# [17] = Postemergence, Rate 62 g/ha, scale 0 to 10, 0 is no effect, 10 is complete control
# [18] = Postemergence, Rate 250 g/ha, scale 0 to 10, 0 no effect, 10 complete control
# [19] = Preemergence, Rate 62 g/ha, scale 0 to 10 (0 no effect, 10 complete control)
# [20] = Preemergence, Rate 125 g/ha, scale 0 to 10 (0 no effect, 10 complete control)
# [21] = Preemergence, Rate 250 g/ha, scale of 0 to 10 where 0 is no effect and 10 is complete control
# [22] = Preemergence, Rate 500 g/ha, scale 0 (no effect) to 10 (complete control)
# [23] = Rate 125 g/ha, Postemergence, scale 0 to 10, 0 no effect, 10 complete control
# [24] = Rate 500 g/ha, Postemergence, scale 0 to 10, 0 no effect, 10 complete control
# [25] = Rate 125 g/ha, Postemergence section (flood test species), scale 0 to 10, 0 no effect, 10 complete control
# [26] = Rate 500 g/ha, listed under Postemergence (flood test species), scale 0 to 10, 0 no effect, 10 complete control
# [27] = flood test, listed under Postemergence, Rate 250 g/ha, scale 0 to 10, 0 no effect, 10 complete control
smiles,measurement,setting,value
Cc1cccc(C(C)C)c1-n1c(=O)on(C(=O)N(c2ccc(F)cc2)C(C)C)c1=O [Compound 65],B. signalgrass plant response rating,[1]; [17],0
same,B. signalgrass plant response rating,[1]; [18],0
same,B. signalgrass plant response rating,[1]; [19],0
same,"Plant response rating, B. signalgrass",[1]; [20],0
same,"Plant response rating, B. signalgrass",[1]; [21],0
same,B. signalgrass plant response rating,[1]; [22],0
same,B. signalgrass plant response rating,[1]; [23],0
same,B. signalgrass plant response rating,"[1]; Rate 500 g/ha, Postemergence, scale of 0 to 10 where 0 is no effect and 10 is complete control",0
same,Blackgrass plant response rating,[2]; [17],0
same,Blackgrass plant response rating,[2]; [18],0
same,Blackgrass plant response rating,[2]; [19],0
same,"Plant response rating, Blackgrass",[2]; [20],0
same,"Plant response rating, Blackgrass",[2]; [21],0
same,Blackgrass plant response rating,[2]; [22],0
same,Blackgrass plant response rating,[2]; [23],0
same,Blackgrass plant response rating,[2]; [24],0
same,Redroot pigweed plant response rating,[3]; [17],0
same,Redroot pigweed plant response rating,[3]; [18],0
same,Redroot pigweed plant response rating,[3]; [19],0
same,"Plant response rating, Redroot pigweed",[3]; [20],0
same,"Plant response rating, Redroot pigweed",[3]; [21],0
same,Redroot pigweed plant response rating,[3]; [22],3
same,Redroot pigweed plant response rating,[3]; [23],0
same,Redroot pigweed plant response rating,[3]; [24],0
same,Rice plant response rating,[4]; [17],0
same,Rice plant response rating,[4]; [25],0
same,Rice plant response rating,[4]; [26],3
same,Rice plant response rating,[4]; [27],0
same,Crabgrass plant response rating,[5]; [17],0
same,Crabgrass plant response rating,[5]; [18],0
same,Crabgrass plant response rating,[5]; [19],0
same,"Plant response rating, Crabgrass",[5]; [20],2
same,"Plant response rating, Crabgrass",[5]; [21],4
same,Crabgrass plant response rating,[5]; [22],9
same,Crabgrass plant response rating,[5]; [23],0
same,Crabgrass plant response rating,[5]; [24],0
same,Wheat plant response rating,[6]; [17],0
same,Wheat plant response rating,[6]; [18],0
same,Wheat plant response rating,[6]; [19],0
same,"Plant response rating, Wheat",[6]; [20],0
same,"Plant response rating, Wheat",[6]; [21],0
same,Wheat plant response rating,[6]; [22],0
same,Wheat plant response rating,[6]; [23],0
same,Wheat plant response rating,[6]; [24],0
same,Rape plant response rating,[7]; [17],0
same,Rape plant response rating,[7]; [18],0
same,Rape plant response rating,[7]; [19],0
same,"Plant response rating, Rape",[7]; [20],0
same,"Plant response rating, Rape",[7]; [21],0
same,Rape plant response rating,[7]; [22],3
same,Rape plant response rating,[7]; [23],0
same,Rape plant response rating,[7]; [24],0
same,Corn plant response rating,[8]; [17],0
same,Corn plant response rating,[8]; [18],0
same,Corn plant response rating,[8]; [19],0
same,"Plant response rating, Corn",[8]; [20],0
same,"Plant response rating, Corn",[8]; [21],0
same,Corn plant response rating,[8]; [22],0
same,Corn plant response rating,[8]; [23],0
same,Corn plant response rating,[8]; [24],0
same,Soybean plant response rating,[9]; [17],1
same,Soybean plant response rating,[9]; [18],1
same,Soybean plant response rating,[9]; [19],0
same,"Plant response rating, Soybean",[9]; [20],0
same,"Plant response rating, Soybean",[9]; [21],0
same,Soybean plant response rating,[9]; [22],0
same,Soybean plant response rating,[9]; [23],1
same,Soybean plant response rating,[9]; [24],1
same,Sugarbeets plant response rating,[10]; [17],0
same,Sugarbeets plant response rating,[10]; [18],0
same,Sugarbeets plant response rating,[10]; [19],0
same,"Plant response rating, Sugarbeets",[10]; [20],0
same,"Plant response rating, Sugarbeets",[10]; [21],0
same,Sugarbeets plant response rating,[10]; [22],0
same,Sugarbeets plant response rating,[10]; [23],0
same,Sugarbeets plant response rating,[10]; [24],0
same,Nutsedge plant response rating,[11]; [17],0
same,Nutsedge plant response rating,[11]; [18],0
same,Nutsedge plant response rating,[11]; [19],0
same,"Plant response rating, Nutsedge",[11]; [20],0
same,"Plant response rating, Nutsedge",[11]; [21],2
same,Nutsedge plant response rating,[11]; [22],3
same,Nutsedge plant response rating,[11]; [23],0
same,Nutsedge plant response rating,[11]; [24],0
same,Ducksalad plant response rating,[12]; [17],0
same,Ducksalad plant response rating,[12]; [25],0
same,Ducksalad plant response rating,[12]; [26],0
same,Ducksalad plant response rating,[12]; [27],0
same,Barnyardgrass plant response rating,[13]; [17],0
same,Barnyardgrass plant response rating,[13]; [25],0
same,Barnyardgrass plant response rating,[13]; [26],2
same,Barnyardgrass plant response rating,[13]; [27],0
same,Giant foxtail plant response rating,[14]; [17],0
same,Giant foxtail plant response rating,[14]; [18],0
same,Giant foxtail plant response rating,[14]; [19],3
same,"Plant response rating, Giant foxtail",[14]; [20],4
same,"Plant response rating, Giant foxtail",[14]; [21],4
same,Giant foxtail plant response rating,[14]; [22],9
same,Giant foxtail plant response rating,[14]; [23],0
same,Giant foxtail plant response rating,[14]; [24],0
same,S. Flatsedge plant response rating,[15]; [17],0
same,S. Flatsedge plant response rating,[15]; [25],0
same,S. Flatsedge plant response rating,[15]; [26],0
same,S. Flatsedge plant response rating,[15]; [27],0
same,Cocklebur plant response rating,[16]; [17],0
same,Cocklebur plant response rating,[16]; [18],0
same,Cocklebur plant response rating,[16]; [19],0
same,"Plant response rating, Cocklebur",[16]; [20],0
same,"Plant response rating, Cocklebur",[16]; [21],0
same,Cocklebur plant response rating,[16]; [22],0
same,Cocklebur plant response rating,[16]; [23],0
same,Cocklebur plant response rating,[16]; [24],0
